Test results published in the CheMixHub viscosity set.
Several values for one entry are separate records, joined by “and”; a condition that tells them apart may be missing. Identical values can stand only once.

Columns and labels:
[1] = xn = mol fraction of the nth substance listed

CC1=CCC(=C(C)C)CC1
101 kPa
Conditions	viscosity [mPa·s]
303.15 K	1.007
308.15 K	0.945
313.15 K	0.884

CCc1ccccc1
Conditions	viscosity
298 K, 101 kPa	0.6295 mPa·s
298.15 K, 101 kPa	0.6076 mPa·s and 0.631 mPa·s
298.15 K, 101.3 kPa	0.657 mPa·s
298.15 K, 101.33 kPa	0.625 mPa·s
303 K, 101.33 kPa	0.574 mPa·s
303.15 K, 100 kPa	0.592 mPa·s
303.15 K, 101 kPa	0.5916 mPa·s
303.15 K, 101.33 kPa	0.584 mPa·s
308.15 K, 100 kPa	0.56 mPa·s
308.15 K, 101.33 kPa	0.5797 mPa·s and 0.56 mPa·s
313 K, 101.33 kPa	0.513 mPa·s
313.15 K, 100 kPa	0.53 mPa·s
313.15 K, 101.33 kPa	0.531 mPa·s
318.15 K, 100 kPa	0.503 mPa·s
318.15 K, 101.33 kPa	0.502 mPa·s and 0.5038 mPa·s
323 K, 101.33 kPa	0.464 mPa·s
323.15 K, 100 kPa	0.478 mPa·s
323.15 K, 101.33 kPa	0.474 mPa·s

CCCCCC(=O)O.CCCCCC(=O)[O-].CC[NH+](CC)CCO
101 kPa
Conditions	viscosity [mPa·s]
293.15 K	76.9
298.15 K	60.01
303.15 K	47.52
308.15 K	38.14
313.15 K	31
318.15 K	25.48
323.15 K	21.16

CCCCCCCCCCCCCCCCCCCCCC
Conditions	viscosity [mPa·s]
323.1 K, 101.3 kPa	4.128

COCCOCCOCCOCCOC
viscosity
Conditions	293.15 K	298 K	298.15 K	303.15 K	308.15 K	318.15 K	323.15 K
101 kPa	3.795 mPa·s	3.295 mPa·s	–	2.955 mPa·s	2.646 mPa·s and 2.643 mPa·s and 2.524 mPa·s	2.168 mPa·s and 2.11 mPa·s	1.975 mPa·s
101.33 kPa	–	–	3.394 mPa·s	–	–	–	–

COCCOCCOCCOCCOC + CCOC(=O)OCC
[1], 298.15 K, 101.33 kPa
Conditions	viscosity [mPa·s]
x1 = 0.0049	0.752
x1 = 0.014	0.772
x1 = 0.0274	0.796
x1 = 0.044	0.824
x1 = 0.068	0.879
x1 = 0.0984	0.938
x1 = 0.1416	1.029
x1 = 0.2036	1.164
x1 = 0.2814	1.348
x1 = 0.3146	1.434
x1 = 0.3497	1.519
x1 = 0.3949	1.634
x1 = 0.4546	1.798
x1 = 0.5017	1.939
x1 = 0.5551	2.083
x1 = 0.5999	2.204
x1 = 0.6478	2.349
x1 = 0.691	2.478
x1 = 0.7376	2.614
x1 = 0.7849	2.76
x1 = 0.8377	2.915
x1 = 0.8758	3.028
x1 = 0.9345	3.218
x1 = 0.9719	3.328
x2 = 0.0132	3.378

COCOCOCOCOC + COCOCOC
[1], 100 kPa
Conditions	viscosity [mPa·s]
298.15 K, x2 = 0.65	1.125
303.15 K, x2 = 0.12	1.575

CCCCn1cc[n+](C)c1.F[P-](F)(F)(F)(F)F + CO
Conditions	viscosity [mPa·s]
[1], 298.15 K, 101 kPa, x1 = 0.7082	45.95

COCCOCCOCCOCCOC + CCCCCCO
viscosity [mPa·s], [1], 100 kPa
Conditions	x2 = 0.1043	x2 = 0.2031	x2 = 0.3014	x2 = 0.4023	x2 = 0.5043	x2 = 0.6003	x2 = 0.7007	x2 = 0.8057	x2 = 0.8986
293.15 K	3.597	3.447	3.317	3.222	3.167	3.167	3.216	3.482	3.977
298.15 K	3.177	3.048	2.933	2.852	2.8	2.797	2.835	3.049	3.453
303.15 K	2.83	2.716	2.617	2.543	2.494	2.488	2.52	2.688	3.023
308.15 K	2.538	2.438	2.35	2.282	2.237	2.227	2.251	2.387	2.661
313.15 K	2.293	2.204	2.124	2.062	2.019	2.007	2.023	2.131	2.356
318.15 K	2.093	2.012	1.94	1.88	1.845	1.826	1.838	1.926	2.111

Clc1ccccc1 + COC(C)=O
viscosity [mPa·s], [1], 101 kPa
Conditions	298.15 K	308.15 K
x2 = 0.0395	0.734	0.662
x2 = 0.1406	0.685	0.619
x2 = 0.2347	0.642	0.581
x2 = 0.3286	0.602	0.547
x2 = 0.4168	0.566	0.516
x2 = 0.4647	0.548	0.5
x2 = 0.5282	0.525	0.479
x2 = 0.6291	0.491	0.448
x2 = 0.7341	0.458	0.418
x2 = 0.8394	0.427	0.39
x2 = 0.9331	0.401	0.367

Clc1ccccc1 + COCCO
[1], 303.15 K, 101.33 kPa
Conditions	viscosity [mPa·s]
x2 = 0.1075	0.749
x2 = 0.2093	0.782
x2 = 0.3086	0.836
x2 = 0.4113	0.894
x2 = 0.4993	0.952
x2 = 0.6006	1.028
x2 = 0.7032	1.113
x2 = 0.8023	1.201
x2 = 0.9234	1.309
